In patent US20220257552A1, “METHODS OF PRESCREENING AND TREATING BREAST CANCERS WITH SELECTIVE ANDROGEN RECEPTOR MODULATORS” (priority 2021, published 2022):

Tests used:
[1] = test system: BR-0001 TNBC; experiment: BR-0001 AR-positive TNBC xenograft in NSG mice; assay type: in vivo; details: 10 mg/kg/day Formula IX or enzalutamide orally
Description: Xenograft experiment. NSG mice obtained from JAX labs were housed with five animals per cage and were allowed free access to tap water and commercial rat chow (Harlan Teklad 22/5 rodent diet—8640). During the course of the study, the animals were maintained on a 12 hr light:dark cycle. Animals were anesthetized and BR-0001 TNBC fragments of 1 mm^3 (approximately) were implanted subcutaneously in NSG mice. […] Tumor volume was measured thrice weekly. Tumor volume was calculated using the formula length×width×width×0.5236. Once tumors reached greater than 1500-2000 mm^3, animals were sacrificed and tumors weighted and stored for various analysis. Two regions of the same BR-0001 tumor, an AR-positive TNBC xenograft, were immunohistochemically stained with AR antibody (AR N20 from SCBT) (FIGS. 26A and 26B) and compared to an AR-negative (FIG. 26C) TNBC as a negative control. […] The tumor xenograft efficacy experimental results are provided in 27A-27C, with FIGS. 27A and 27B being replicate experiments.
Tumors from replicate experiment 2 (FIG. 27B) were fixed in formalin and paraffin embedded. Slides were cut and stained with Ki-67 antibody. Ki-67 positive cells (total 200 cells were counted in each slide) in each slide were counted and represented as % stained cells, as shown in FIG. 28B.

[2] = test system: HCI-7 PDX; experiment: HCI-7 (HCI-007) patient-derived xenograft in NSG mice; assay type: in vivo; details: Formula IX 10 mg/kg, enzalutamide 20 mg/kg, orally, vs vehicle
Description: HCI-007 tumor pieces (1 mm^3) were implanted surgically (one per mouse) under the skin on the flanks of NSG mice. Simultaneously, 17β-estradiol pellet (Innovative Research of America) was implanted surgically under the skin of each mouse. Tumors were allowed to grow and reach approximately 100 mm^3 volume (1*W*W*0.526). […] Tumor volume was measured weekly and represented as % change in tumor volume (FIG. 32). Mice were sacrificed and tumors stored for further analysis.
(§1) All animal protocols were approved by The University of Tennessee Health Science Center (UTHSC) Institutional Animal Care and Use Research Committee. Xenograft experiments were performed as previously published (Narayanan et al. (2014) PLoS One 9, e103202). Briefly, 3 million MCF-7 cells were suspended in 0.05 ml MEM+10% FBS and 0.05 ml Matrigel/nude mouse and were injected subcutaneously. Once the tumor size reached 100-200 mm^3, the animals were randomized and treated orally with the indicated drugs formulated in DMSO:PEG-300 (15:85). HCI-7, HCI-9, and HCI-13 PDXs were gifts kindly donated by Dr. Alana Welm (Huntsman Cancer Institute, Salt Lake City, Utah). HCI PDX tumor fragments (1 mm^3) were surgically implanted under the mammary fat pad in female NOD SCID Gamma (NSG) mice. Tumor volume was measured twice weekly for MCF-7 xenograft and once or twice weekly for HCI PDXs. At the end of the study, animals were sacrificed and tumors were excised, weighed, and stored for various analyses.
From the several PDXs available, three AR-positive PDXs were identified, based on gene expression profile. […] The enzalutamide dose was selected based on previous published experiments (Park et al. (2016) Cancer Invest 34, 517-520; Pollock et al. (2016) Nat Chem Biol 12, 795-801) as well as from internal experiments conducted in prostate cancer xenografts and in Hershberger studies.

[3] = test system: HCI-9 PDX; experiment: HCI-9 patient-derived xenograft in NSG mice; assay type: in vivo; details: Formula IX 10 mpk, enzalutamide 30 mpk p.o.
Description: as §1
To determine if the same effect is observed in an AR-positive, but ER-negative breast cancer, HCI-9 tumor fragments were implanted under the mammary fat pad of NSG mice.

[4] = test system: MCF-7-GFP cells; assay type: cell-based, human; details: 10 days
From the text: Tumor microenvironment contains tumor epithelial cells, stromal cells, cancer-associated fibroblasts (CAFs), and endothelial cells. The collective function of these cells promotes the aggressive growth of tumors due to secretion of paracrine factors. The CAFs are important for the sustained growth of cancers, and they differ from normal fibroblasts in their capacity to secrete factors that promote proliferation of cancer cells. […] Medium was collected over a period of 10 days and pooled. CAFs were stained with SRB to evaluate the effect of AR ligands on proliferation.
Conditioned medium was replaced on days 4 and 7 and the cells were stained with SRB to measure viability.

[5] = test system: HCI-13 tumor fragments; experiment: HCI-13 ex vivo sponge culture, real time PCR; assay type: cell-based; details: 10 nM DHT, 1 μM Formula IX, 100 nM fulvestrant, 3 days
Description: (§2) HCI-13 tumors grown in female mice were allowed to reach 500-1000 mm^3 before the animals were sacrificed and the tumors were excised to be used for sponge culture. Patient specimens frozen in liquid nitrogen in freezing medium were used for sponge culture. […] Tumors were sliced into small pieces (˜1 mm^3) and incubated on pre-soaked gelatin sponges (5 fragments/sponge) in 12 well plates containing 1.5 mL medium (MEM+10% FBS+2 mM L-glutamine+10 μg/mL insulin+10 μg/mL hydrocortisone+penicillin:streptomycin). The cultures were performed in triplicates for HCI-13 and singly for patient specimens. Pooled samples (n=5/sponge) from each sponge constituted one sample. Tissues were harvested after 3 days of treatment, RNA extracted, and expression of various genes measured. Although the same procedure was adopted for specimens obtained from breast cancer patients, the specimens were cultured singly (n=5/sponge=one sample) and not in triplicates as performed for HCI-13.

[6] = biological target: HCI-13 ER-α (Homo sapiens, UniProt P03372, Y537S); details: 10 nM fulvestrant or 1 μM tamoxifen with 0.1 nM estradiol
Sequence of HCI-13 ER-α (P03372 whole entry Y537S): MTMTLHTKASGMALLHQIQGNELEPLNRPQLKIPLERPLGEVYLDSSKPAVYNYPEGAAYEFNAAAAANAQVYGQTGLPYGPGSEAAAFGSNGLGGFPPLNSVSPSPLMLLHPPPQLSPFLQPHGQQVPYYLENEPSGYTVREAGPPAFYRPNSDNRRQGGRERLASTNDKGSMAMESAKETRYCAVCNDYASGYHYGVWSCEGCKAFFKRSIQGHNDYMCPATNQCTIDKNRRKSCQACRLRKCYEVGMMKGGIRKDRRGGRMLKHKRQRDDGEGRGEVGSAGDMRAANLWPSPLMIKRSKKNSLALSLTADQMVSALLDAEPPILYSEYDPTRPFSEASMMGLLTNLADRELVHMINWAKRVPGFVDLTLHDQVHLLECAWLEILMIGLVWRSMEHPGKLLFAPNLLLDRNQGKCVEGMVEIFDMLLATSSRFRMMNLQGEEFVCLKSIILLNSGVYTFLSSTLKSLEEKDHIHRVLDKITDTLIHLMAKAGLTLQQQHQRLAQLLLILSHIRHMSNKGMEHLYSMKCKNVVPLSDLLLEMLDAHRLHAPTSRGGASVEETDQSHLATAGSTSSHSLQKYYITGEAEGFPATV
Description: (§3) After 6 days of treatment, cells were harvested, and the number of cells was counted. […] Medium was changed after 3 days and re-treated. Cells were fixed after 6 days of treatment and the cell viability was measured by SRB assay. […] Medium was changed, and the cells were re-treated on days 4 and 7. Medium was collected, pooled from triplicates, and stored in −80° C. After 10 days of treatment, cells were fixed, and cell viability was measured using SRB. MCF-7 cells stably transfected with GFP (MCF-7-GFP) were plated in growth medium. Twenty-four hours after plating, cells were fed with the conditioned medium obtained from patient-derived fibroblasts as indicated above. Cells were fed for 10 days with conditioned medium, with medium changed on days 4 and 7. After 10 days of treatment, cells were fixed, and the viability was measured by SRB assay. […] AR-positive, but ER-negative HCI-9 PDX was surgically implanted as 1 mm^3 fragments under the mammary fat pad in NSG mice (n=8-10/group). […] Tumor volume was measured thrice weekly. […] ER-α from HCI-13 was cloned into pCR3.1 vector. Wildtype ER-α and HCI-13 ER-α, ERE-LUC, and CMV-LUC were transfected into COS-1 cells using lipofectamine. […] Twenty four hours after treatment cells were harvested and luciferase assay was performed. […] Values are expressed as average±S.E. from n=3-4/data point.

[7] = biological target: Wildtype ER-α (Homo sapiens, UniProt P03372); details: 10 nM fulvestrant or 1 μM tamoxifen with 0.1 nM estradiol
Sequence of Wildtype ER-α (P03372 whole entry, species assumed): as the sequence (P03372 whole entry Y537S) above, with S537Y counted along it
Description: as §3

[8] = test system: breast cancer specimens obtained from patients; experiment: Breast cancer patient specimens, ex vivo sponge culture; assay type: cell-based, human; details: 1 μM Formula IX, 100 nM fulvestrant, 3 days
Description: Specimens from breast cancer patients were collected with patient consent under a protocol approved by the UTHSC Institutional Review Board (IRB). Specimens were collected immediately after surgery in RPMI medium containing penicillin:streptomycin and Fungizone and transported to the laboratory on ice. The tissues were finely minced and treated with collagenase for 2 hours.
as §2
Like other cancers, breast cancer is also heterogeneous in its genomic profile as well as in its response to treatments. […] Three days after treatment, RNA was isolated from the tissues and expression of ER- and AR-target genes was measured.

[9] = test system: metastatic ER+/HER2- breast cancer; details: cited from earlier work
[10] = test system: TNBC; details: with nab-paclitaxel; cited from earlier work
[11] = test system: TNBC; details: plus chemotherapy arm; cited from earlier work

Molecule: CNC(=O)c1ccc(N2C(=S)N(c3ccc(C#N)c(C(F)(F)F)c3)C(=O)C2(C)C)cc1F [enzalutamide, reference compound]
- tumor growth [1]: indistinguishable from vehicle treatment
- tumor growth (% change in tumor volume) [2]: grew comparably
- tumor growth trajectory [3]: Neither Formula IX nor enzalutamide altered the growth trajectory
- proliferation of breast cancer CAFs ([4]; 10 nM DHT, 1 μM Formula IX, 1 μM enzalutamide): neither AR agonist, DHT and Formula IX, nor AR antagonist enzalutamide, affected the proliferation
- proliferation of MCF-7-GFP cells fed conditioned medium from treated CAFs [4]: not

Molecule: C[C@]12CC[C@@H]3c4ccc(O)cc4C[C@@H](CCCCCCCCC[S+]([O-])CCCC(F)(F)C(F)(F)F)[C@H]3[C@@H]1CC[C@@H]2O (stereo partly shown) [fulvestrant]
- inhibition of ER-induced pS2 and PR gene expression [5]: ineffective
- ER activity [6]: not inhibited
- ER activity [7]: inhibited
- specimens in which ER function was inhibited [8]: 4 of 8
- median PFS range ([9]; after failing one estrogen blocking therapy): 4.6-9.3 months
- objective response rate ([9]; depending on the trial): 10.9%-21.3%

Molecule: atezolizumab: PD-L1 blocking antibody
- Median progression-free survival (PFS) [10]: 7.4 months

Molecule: pembrolizumab: PD-L1 blocking antibody
- median PFS [11]: 9.7 months
